Assay [1] deals with Glycogen synthase kinase-3 alpha (Homo sapiens) (UniProt P49840). Description: Residual activity of GSK3alpha at 1 uM by microplate scintillation counting.
Assay [2] deals with T1, Cytoplasmic tyrosine-protein kinase BMX (Homo sapiens) (UniProt P51813).
T1 sequence (whole entry): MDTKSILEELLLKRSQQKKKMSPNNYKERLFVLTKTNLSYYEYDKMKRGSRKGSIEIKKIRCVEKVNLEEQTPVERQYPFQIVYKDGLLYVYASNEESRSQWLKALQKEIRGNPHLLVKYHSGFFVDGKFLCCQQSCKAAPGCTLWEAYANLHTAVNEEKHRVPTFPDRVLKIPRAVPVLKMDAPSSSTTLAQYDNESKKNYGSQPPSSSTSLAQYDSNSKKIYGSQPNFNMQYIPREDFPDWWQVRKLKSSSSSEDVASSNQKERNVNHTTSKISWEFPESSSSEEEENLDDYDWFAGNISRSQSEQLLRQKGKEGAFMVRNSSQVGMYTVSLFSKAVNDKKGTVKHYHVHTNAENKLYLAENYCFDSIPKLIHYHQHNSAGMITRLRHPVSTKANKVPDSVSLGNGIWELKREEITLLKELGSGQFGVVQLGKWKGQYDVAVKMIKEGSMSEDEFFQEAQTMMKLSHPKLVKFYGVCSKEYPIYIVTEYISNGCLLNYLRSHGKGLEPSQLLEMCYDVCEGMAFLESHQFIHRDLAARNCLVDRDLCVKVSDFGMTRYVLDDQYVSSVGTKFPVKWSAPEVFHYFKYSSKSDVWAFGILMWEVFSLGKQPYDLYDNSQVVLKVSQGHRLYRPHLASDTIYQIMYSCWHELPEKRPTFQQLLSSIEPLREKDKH
Description: Residual activity of BMX at 10 uM by microplate scintillation counting.

Assay [3] has as its target Ribosomal protein S6 kinase alpha-6 (Homo sapiens) (UniProt Q9UK32). Description: Residual activity of RPS6KA6 at 1 uM by microplate scintillation counting.
Assay [4] addresses T2, Serine/threonine-protein kinase NLK (Homo sapiens) (UniProt Q9UBE8).
T2 sequence (whole entry): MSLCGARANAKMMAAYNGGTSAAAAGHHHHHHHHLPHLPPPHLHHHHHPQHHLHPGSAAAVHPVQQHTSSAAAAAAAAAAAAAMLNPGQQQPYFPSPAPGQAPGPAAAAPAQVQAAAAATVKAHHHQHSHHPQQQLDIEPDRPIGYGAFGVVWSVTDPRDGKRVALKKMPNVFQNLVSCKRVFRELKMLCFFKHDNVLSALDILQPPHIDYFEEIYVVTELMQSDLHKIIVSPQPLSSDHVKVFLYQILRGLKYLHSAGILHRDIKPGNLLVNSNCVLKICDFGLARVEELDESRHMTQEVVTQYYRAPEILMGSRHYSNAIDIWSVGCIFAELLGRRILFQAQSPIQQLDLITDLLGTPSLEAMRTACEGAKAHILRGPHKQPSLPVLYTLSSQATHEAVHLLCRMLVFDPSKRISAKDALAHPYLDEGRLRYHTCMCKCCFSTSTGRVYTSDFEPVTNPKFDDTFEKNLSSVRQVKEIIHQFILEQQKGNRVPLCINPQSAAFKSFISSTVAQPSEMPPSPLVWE
Description: Residual activity of NLK at 1 uM by microplate scintillation counting.

The target in assay [5] is CDK6/cyclin D1 (Homo sapiens) (UniProt P24385+Q00534). Description: Residual activity of CDK6/Cyclin D1 at 0.1 uM by microplate scintillation counting. Type of assay: protein-complex assay.
Assay [6] concerns the target Serine/threonine-protein kinase MARK1 (Homo sapiens) (UniProt Q9P0L2). Description: Residual activity of MARK1 at 0.1 uM by microplate scintillation counting.
The target in assay [7] is T3, Serine/threonine-protein kinase Sgk1 (Homo sapiens) (UniProt O00141).
T3 sequence (whole entry): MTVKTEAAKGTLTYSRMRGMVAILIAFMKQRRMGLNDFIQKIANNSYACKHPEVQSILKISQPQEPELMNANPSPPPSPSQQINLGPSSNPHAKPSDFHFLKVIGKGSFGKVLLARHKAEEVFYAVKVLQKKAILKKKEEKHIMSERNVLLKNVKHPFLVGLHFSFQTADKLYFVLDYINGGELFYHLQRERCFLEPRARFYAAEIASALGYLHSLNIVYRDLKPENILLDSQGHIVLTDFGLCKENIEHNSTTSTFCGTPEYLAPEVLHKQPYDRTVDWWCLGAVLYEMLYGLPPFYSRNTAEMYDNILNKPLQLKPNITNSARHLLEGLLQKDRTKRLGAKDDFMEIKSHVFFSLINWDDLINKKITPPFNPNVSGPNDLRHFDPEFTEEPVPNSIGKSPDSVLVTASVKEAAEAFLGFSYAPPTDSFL
Description: Residual activity of SGK1 at 1 uM by microplate scintillation counting.

Assay [8] concerns the target Platelet-derived growth factor receptor beta (Homo sapiens, UniProt P09619). Description: Residual activity of PDGFRbeta at 0.1 uM by microplate scintillation counting.
In assay [9] the target is T4, Phosphorylase b kinase gamma catalytic chain, liver/testis isoform (Homo sapiens) (UniProt P15735).
T4 sequence (whole entry): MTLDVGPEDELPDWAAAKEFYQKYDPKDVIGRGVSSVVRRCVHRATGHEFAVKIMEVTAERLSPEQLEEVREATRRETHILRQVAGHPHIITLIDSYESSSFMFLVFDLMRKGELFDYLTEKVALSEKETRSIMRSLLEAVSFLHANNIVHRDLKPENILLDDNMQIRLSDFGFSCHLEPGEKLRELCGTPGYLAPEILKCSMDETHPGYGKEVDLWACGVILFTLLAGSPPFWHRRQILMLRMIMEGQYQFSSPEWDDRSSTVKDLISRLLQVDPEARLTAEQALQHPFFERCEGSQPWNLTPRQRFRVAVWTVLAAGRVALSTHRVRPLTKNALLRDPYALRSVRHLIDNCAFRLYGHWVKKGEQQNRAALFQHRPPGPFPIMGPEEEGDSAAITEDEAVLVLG
Description: Residual activity of PHKG2 at 1 uM by microplate scintillation counting.

The target in assay [10] is T5, cAMP-dependent protein kinase catalytic subunit PRKX (Homo sapiens) (UniProt P51817).
T5 sequence (whole entry): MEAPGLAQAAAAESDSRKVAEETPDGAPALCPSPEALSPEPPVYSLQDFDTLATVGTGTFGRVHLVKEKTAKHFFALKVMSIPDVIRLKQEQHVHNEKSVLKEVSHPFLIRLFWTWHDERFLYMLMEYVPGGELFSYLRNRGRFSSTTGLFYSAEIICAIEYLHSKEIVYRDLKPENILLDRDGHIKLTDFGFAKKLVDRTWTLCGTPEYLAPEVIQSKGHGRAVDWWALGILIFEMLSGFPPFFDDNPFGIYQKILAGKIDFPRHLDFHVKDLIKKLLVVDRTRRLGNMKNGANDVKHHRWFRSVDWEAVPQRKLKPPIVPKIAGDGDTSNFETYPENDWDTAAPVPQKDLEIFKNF
Description: Residual activity of PRKX at 10 uM by microplate scintillation counting.

For assay [11], the target named is Ribosomal protein S6 kinase alpha-3 (Homo sapiens) (UniProt P51812). Description: Residual activity of RPS6KA3 at 10 uM by microplate scintillation counting.
Sequence of Ribosomal protein S6 kinase alpha-3 (Homo sapiens) (P51812 whole entry): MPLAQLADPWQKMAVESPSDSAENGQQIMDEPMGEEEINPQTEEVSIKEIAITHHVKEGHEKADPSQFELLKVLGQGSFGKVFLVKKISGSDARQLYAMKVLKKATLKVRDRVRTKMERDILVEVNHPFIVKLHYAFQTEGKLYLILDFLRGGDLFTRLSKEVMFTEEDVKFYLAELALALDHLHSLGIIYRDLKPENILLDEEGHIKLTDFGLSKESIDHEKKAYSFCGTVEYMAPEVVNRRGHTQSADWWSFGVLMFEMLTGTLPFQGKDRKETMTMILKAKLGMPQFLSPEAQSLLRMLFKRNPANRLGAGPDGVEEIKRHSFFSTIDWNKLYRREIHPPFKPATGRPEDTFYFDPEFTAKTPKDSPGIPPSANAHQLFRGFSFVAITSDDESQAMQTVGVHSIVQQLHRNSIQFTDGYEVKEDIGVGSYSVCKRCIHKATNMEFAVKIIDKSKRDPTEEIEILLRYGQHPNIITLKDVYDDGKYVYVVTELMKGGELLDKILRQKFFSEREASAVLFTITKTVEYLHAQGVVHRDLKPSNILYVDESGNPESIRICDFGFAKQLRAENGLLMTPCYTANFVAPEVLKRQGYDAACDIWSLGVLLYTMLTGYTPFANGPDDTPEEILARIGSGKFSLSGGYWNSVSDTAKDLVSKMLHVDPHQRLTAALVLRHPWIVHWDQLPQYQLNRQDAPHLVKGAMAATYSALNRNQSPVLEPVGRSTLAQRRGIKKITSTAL

Sequence of Glycogen synthase kinase-3 alpha (Homo sapiens) (P49840 2-483 limits assumed): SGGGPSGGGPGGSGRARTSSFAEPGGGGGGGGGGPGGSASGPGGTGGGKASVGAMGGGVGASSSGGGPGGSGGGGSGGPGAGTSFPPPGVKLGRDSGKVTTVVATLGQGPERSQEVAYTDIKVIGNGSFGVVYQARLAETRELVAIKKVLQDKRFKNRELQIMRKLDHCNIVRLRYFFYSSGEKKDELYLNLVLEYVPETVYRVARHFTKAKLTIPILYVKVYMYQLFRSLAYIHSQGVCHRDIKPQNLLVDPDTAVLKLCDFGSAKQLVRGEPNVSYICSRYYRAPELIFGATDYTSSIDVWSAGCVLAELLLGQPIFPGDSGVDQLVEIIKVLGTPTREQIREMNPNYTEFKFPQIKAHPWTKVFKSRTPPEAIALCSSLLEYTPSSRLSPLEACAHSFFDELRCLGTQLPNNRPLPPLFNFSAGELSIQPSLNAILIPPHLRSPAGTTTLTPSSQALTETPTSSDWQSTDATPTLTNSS
Sequence of Serine/threonine-protein kinase MARK1 (Homo sapiens) (Q9P0L2 whole entry, looked up): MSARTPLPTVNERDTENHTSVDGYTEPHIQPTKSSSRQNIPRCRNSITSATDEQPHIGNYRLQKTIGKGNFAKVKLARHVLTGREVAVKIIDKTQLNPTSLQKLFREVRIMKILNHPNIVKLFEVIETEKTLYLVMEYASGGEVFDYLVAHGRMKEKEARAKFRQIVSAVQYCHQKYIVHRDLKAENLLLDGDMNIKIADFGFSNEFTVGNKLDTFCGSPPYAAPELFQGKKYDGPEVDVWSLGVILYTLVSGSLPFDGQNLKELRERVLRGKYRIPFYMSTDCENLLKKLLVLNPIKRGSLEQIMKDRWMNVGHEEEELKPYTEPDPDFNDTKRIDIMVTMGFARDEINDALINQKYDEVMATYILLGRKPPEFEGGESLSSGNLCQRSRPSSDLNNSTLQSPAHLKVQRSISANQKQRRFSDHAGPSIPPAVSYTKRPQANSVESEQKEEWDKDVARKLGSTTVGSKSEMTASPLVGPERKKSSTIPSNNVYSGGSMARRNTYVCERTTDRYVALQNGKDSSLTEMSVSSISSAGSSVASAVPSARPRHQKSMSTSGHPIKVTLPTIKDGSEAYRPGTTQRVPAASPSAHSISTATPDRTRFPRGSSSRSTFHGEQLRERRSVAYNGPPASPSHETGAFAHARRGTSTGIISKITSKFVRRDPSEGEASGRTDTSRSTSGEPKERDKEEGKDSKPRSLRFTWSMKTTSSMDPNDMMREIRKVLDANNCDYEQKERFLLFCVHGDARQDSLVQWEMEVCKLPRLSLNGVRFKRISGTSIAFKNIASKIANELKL
Sequence of Ribosomal protein S6 kinase alpha-6 (Homo sapiens) (Q9UK32 whole entry): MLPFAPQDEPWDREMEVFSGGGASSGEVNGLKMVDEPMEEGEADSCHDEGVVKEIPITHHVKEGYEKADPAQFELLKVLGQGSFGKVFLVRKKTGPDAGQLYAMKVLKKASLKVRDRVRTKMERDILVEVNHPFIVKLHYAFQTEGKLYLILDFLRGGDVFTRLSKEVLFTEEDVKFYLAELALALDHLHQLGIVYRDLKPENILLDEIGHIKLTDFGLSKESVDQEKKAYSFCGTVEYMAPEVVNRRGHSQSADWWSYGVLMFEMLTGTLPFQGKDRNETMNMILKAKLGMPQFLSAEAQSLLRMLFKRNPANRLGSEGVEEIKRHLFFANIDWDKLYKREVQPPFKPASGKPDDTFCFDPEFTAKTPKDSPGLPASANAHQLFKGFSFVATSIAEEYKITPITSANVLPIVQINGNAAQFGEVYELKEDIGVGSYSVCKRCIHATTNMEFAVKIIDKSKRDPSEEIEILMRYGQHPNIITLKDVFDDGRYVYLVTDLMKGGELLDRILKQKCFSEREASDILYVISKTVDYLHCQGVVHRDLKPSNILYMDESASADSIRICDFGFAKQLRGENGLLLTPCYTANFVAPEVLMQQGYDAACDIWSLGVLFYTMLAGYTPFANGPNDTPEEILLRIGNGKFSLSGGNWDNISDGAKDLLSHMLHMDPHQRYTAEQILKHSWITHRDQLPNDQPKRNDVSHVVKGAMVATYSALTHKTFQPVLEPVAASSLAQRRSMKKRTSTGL
Sequence of Platelet-derived growth factor receptor beta (P09619 whole entry, canonical isoform): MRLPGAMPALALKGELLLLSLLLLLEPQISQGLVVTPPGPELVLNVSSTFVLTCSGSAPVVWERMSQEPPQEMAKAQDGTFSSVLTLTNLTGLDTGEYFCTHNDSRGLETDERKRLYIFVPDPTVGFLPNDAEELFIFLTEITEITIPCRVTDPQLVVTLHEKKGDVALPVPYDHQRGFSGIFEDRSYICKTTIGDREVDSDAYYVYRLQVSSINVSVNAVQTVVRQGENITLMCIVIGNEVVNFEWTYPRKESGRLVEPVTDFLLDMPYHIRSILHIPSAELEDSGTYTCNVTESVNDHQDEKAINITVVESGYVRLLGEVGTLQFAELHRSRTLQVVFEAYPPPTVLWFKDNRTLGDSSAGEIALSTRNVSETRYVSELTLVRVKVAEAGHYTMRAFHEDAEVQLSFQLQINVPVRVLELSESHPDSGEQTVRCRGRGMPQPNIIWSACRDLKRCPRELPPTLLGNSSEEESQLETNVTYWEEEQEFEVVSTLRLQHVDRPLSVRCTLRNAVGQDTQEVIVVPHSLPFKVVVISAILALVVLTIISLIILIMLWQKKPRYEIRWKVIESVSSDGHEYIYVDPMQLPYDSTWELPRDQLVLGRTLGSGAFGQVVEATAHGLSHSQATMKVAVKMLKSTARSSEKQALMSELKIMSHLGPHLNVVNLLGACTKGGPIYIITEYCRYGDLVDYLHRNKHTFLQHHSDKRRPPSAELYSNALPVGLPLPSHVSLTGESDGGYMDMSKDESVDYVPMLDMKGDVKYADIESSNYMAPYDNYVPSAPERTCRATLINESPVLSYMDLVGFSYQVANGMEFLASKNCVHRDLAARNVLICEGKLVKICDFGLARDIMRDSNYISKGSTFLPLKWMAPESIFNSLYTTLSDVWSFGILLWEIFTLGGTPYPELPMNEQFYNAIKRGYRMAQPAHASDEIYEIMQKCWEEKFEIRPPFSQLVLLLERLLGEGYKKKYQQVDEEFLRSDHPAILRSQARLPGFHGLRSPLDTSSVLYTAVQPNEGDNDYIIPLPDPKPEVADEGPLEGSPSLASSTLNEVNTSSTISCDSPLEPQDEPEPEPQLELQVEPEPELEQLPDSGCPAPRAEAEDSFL

On to `COc1cc2c(Oc3ccc(-c4nc5ccccc5s4)cc3)ncnc2cc1OCCCN1CCN(C)CC1`, for which the residual activity in [1] worked out at 87%; in assay [2] it was 156%; in assay [3], 101%; in assay [4], 113%; in assay [5] it was 99%; in [6], 98%. Further, the residual activity in [7] is 86%; in assay [8] it was 94%; in [9], 96%; in [10] it was 86%; in assay [11], 50%.

`COc1cc2c(Oc3ccc(-c4nc5ccccc5s4)cc3)ncnc2cc1OCCCN1CCCC1`: the residual activity was 83% in assay [1]; 138% in [2]; 95% in assay [3]; 96% in [4]; 91% in [5]; 90% in [6]. Moreover, the residual activity in assay [7] came to 99%; in assay [8], 95%; in [9], 80%; in assay [10], 86%; in [11] it was 58%.

On to `COc1cc2c(Oc3ccc(-c4nc5ccccc5s4)cc3F)ncnc2cc1OCCCN1CCN(C)CC1`, for which the residual activity in assay [1] came out at 96%; in [2], 44%; in assay [3] it was 97%; in assay [4], 113%; in assay [5], 107%; in assay [6], 91%. Besides, the residual activity in assay [7] was 96%; in assay [8] it was 95%; in assay [9], 72%; in [10] it was 94%; in [11] it was 36%.

For the origin of these results see ChEMBL document CHEMBL1152560, “Substituted 2-arylbenzothiazoles as kinase inhibitors: hit-to-lead optimization” (Bioorg Med Chem, 2009).
